Values quoted from earlier work in patent publication US20210052557A1, “COMPOSITIONS FOR TREATING INFECTIVE ARTERIAL DISEASES AND RELATED CONDITIONS” (CENTRE FOR DIGESTIVE DISEASES, priority 2018, published 2021).

Legend:
[1] = tested on: Chlamydophila pneumoniae (Cpn); conditions: single antibiotic given to patients
[2] = tested on: Chlamydophila pneumoniae (Cpn)

CC[C@H]1OC(=O)[C@H](C)[C@@H](O[C@H]2C[C@@](C)(OC)[C@@H](O)[C@H](C)O2)[C@H](C)[C@@H](O[C@@H]2O[C@H](C)C[C@H](N(C)C)[C@H]2O)[C@](C)(O)C[C@@H](C)CN(C)[C@H](C)[C@@H](O)[C@]1(C)O [Azithromycin]
clinical benefit as monotherapy [1]: some benefit, but this was not sustained

CN(C)c1cc(NC(=O)CNC(C)(C)C)c(O)c2c1C[C@H]1C[C@H]3[C@H](N(C)C)C(O)=C(C(N)=O)C(=O)[C@@]3(O)C(O)=C1C2=O [Tigecycline]
activity against Chlamydophila pneumoniae (Cpn) [2]: good activity

CC[C@H]1OC(=O)[C@H](C)C(=O)[C@H](C)[C@@H](O[C@@H]2O[C@H](C)C[C@H](N(C)C)[C@H]2O)[C@](C)(OC/C=C/c2cnc3ccccc3c2)C[C@@H](C)C(=O)[C@H](C)[C@H]2NC(=O)O[C@@]21C [cethromycin]
activity against Chlamydophila pneumoniae (Cpn) [2]: most active of the macrolides

CC[C@H]1OC(=O)[C@H](C)[C@@H](O[C@H]2C[C@@](C)(OC)[C@@H](O)[C@H](C)O2)[C@H](C)[C@@H](O[C@@H]2O[C@H](C)C[C@H](N(C)C)[C@H]2O)[C@](C)(O)C[C@@H](C)/C(=N\OCOCCOC)[C@H](C)[C@@H](O)[C@]1(C)O [roxithromycin]
clinical benefit as monotherapy [1]: Benefit
